Assay results published in patent publication US10526329B2 (Galapagos NV, priority 2013, dated 2020).

Legend:
[1] = system: TS-exposed female C57BL/6J mice; test: Tobacco smoke (TS) model, lungs inflammatory cells recruitment; type: in vivo, mouse; conditions: days 6 to 11, TS-exposed mice
Method: The aim of this experiment is to evaluate the efficacy and potency of a test compound administered p.o., once or twice daily on days 6 to 11, vs reference compounds, on pulmonary inflammation induced by 11 days of TS-exposure in female C57BL/6J mice, by assessing the effect of a test compound on the tobacco smoke induced recruitment of inflammatory cells to the lungs.
The test compounds are formulated in PEG200/0.5% methylcellulose (25/75, v/v) and are given at a dose volume of 10 mL/kg. Roflumilast and Dexamethasone are included as positive […] control, respectively. Each treatment group consists of 10 mice.
A first group of mice is subjected to daily TS-exposure for 5 consecutive days and sacrificed on the day 6, 24 h after the final TS-exposure.
A second group is exposed to air for 5 consecutive days (sham exposure) and sacrificed on the day 6, 24 h after the final air-exposure.
Compound and reference-treated groups are subjected to daily TS-exposure for 11 consecutive days and sacrificed on the day 12, 24 h after the final TS-exposure. Mice are dosed p.o. on days 6 to 11, twice daily, 1 h prior to and 6 h after each TS-exposure, with either vehicle, or the test compound at 3, 5, 10 or 30 mg/kg. Another group is dosed p.o. on days 6 to 11, once daily, 1 h prior to each TS-exposure, with either vehicle, or the test compound at 10 mg/kg.
An additional group is dosed p.o., once daily, on days 6 to 11, with roflumilast at 5 mg/kg, 1 h prior to each TS-exposure. Dexamethasone is dosed p.o., twice daily, on days 6 to 11, at 0.3 mg/kg, 1 h prior to and 6 h after each TS-exposure.
For each mouse, a BAL is performed using 0.4 mL of PBS. The lavage fluid is centrifuged, the supernatant removed and the resulting cell pellet re-suspended for total cell counts and cytospin slide preparation. […]
The lungs are dissected out and the left lobes are removed, snap-frozen and stored at −80° C. […] Cell data are presented as individual data points for each animal and the mean value calculated for each group. […]
Percentage inhibitions for the cell data are calculated using the formula below: […]

[2] = molecular target: hENPP2 (Homo sapiens (Human), UniProt Q13822); test: hENPP2 biochemical assay, LPC as substrate
Method: The principle of the assay consists in quantifying the released choline with an enzymatic method using choline oxidase and peroxidase. Choline oxydation by choline oxydase releases betaine and peroxide. The latter is quantified in presence of HRP that converts the peroxide detection agent TOOS and 4-aminoantipyrine into quinoneimine dye. The appearance of quinoneimine dye is measured spectrophotometrically at 555 nm and is proportional to the amount of choline released by ENPP2. Inhibition of ENPP2 will result in a decrease of the signal.
Compound IC50 values are determined in a hENPP2 (UniProtKB/SwissProt Sequence ref Q13822) biochemical assay using LPC as substrate.
The enzyme is diluted in 50 mM Tris-HCl pH 8.5, 500 mM NaCl, 5 mM KCl, 10 mM CaCl2, 0.1% fatty acid free BSA in a total volume of 10 μL. the reaction is started by the addition of 10 μL of 150 μM LPC (palmitoyl 16:0) diluted in the same buffer as described above and the mixture is incubated at 37° C. for 30 min. The reaction is terminated and choline quantified by the addition of a 25 μL of a mixture containing 0.6 U/mL of choline oxidase, 0.6 U/mL of peroxydase, 1.8 mM TOOS, 1.2 mM amino-antipyrine, 20 mM EGTA (stop-developer solution) diluted in the buffer described above. […] is read on the Envision after an incubation of 30 min at room temperature (Excitation 555 nm, excitation light=70%).

| IC50 [2] | Compound | number of cells recovered in the BALF, in particular macrophage cells, epithelial cells, and neutrophils ([1]; 3 mg/kg twice daily p.o.) | number of cells recovered in the BALF, in particular macrophage cells, epithelial cells, and neutrophils ([1]; 10 mg/kg twice daily p.o.) |
| --- | --- | --- | --- |
|  | CCc1nc2c(C)cc(N3CCN(CC(=O)N4CC(O)C4)CC3)cn2c1N(C)c1nc(-c2ccc(F)cc2)c(C#N)s1 [Compound 2, 2-((2-ethyl-6-(4-(2-(3-hydroxyazetidin-1-yl)-2-oxoethyl)piperazin-1-yl)-8-methylimidazo[1,2-a]pyridin-3-yl)(methyl)amino)-4-(4-fluorophenyl)thiazole-5-carbonitrile] | significantly inhibited | significantly inhibited |
|  | CCc1nc2c(F)cc(N3CCN(CC(=O)N4CC(O)C4)CC3)cn2c1N(C)c1nc(-c2ccc(F)cc2)c(C#N)s1 [Compound 12, 2-((2-ethyl-8-fluoro-6-(4-(2-(3-hydroxyazetidin-1-yl)-2-oxoethyl)piperazin-1-yl)imidazo[1,2-a]pyridin-3-yl)(methyl)amino)-4-(4-fluorophenyl)thiazole-5-carbonitrile] |  | significantly inhibited |
| 500 to 1000 nM | CCc1nc2ccc(C3CCN(C4=NCC(CO)O4)CC3)cn2c1N(C)c1nc(-c2ccc(F)cc2)cs1 (stereo not shown) [Compound 222] |  |  |
